The results in this text go back to US6841519B1, “Isoxazoline derivatives and herbicides containing the same as the active ingredient” (Kumiai Chemical Industry Co., Ltd., priority 1999, dated 2005).

Holding throughout (format): in vivo
Series [1] deals with Echinochloa crus-galli (L.) Beauv. var. crusgall (Ec). The series is described as follows: Test for herbicidal effect by upland field soil treatment (Test Example 2), Ec. To be noted: 100 g/10 a active ingredient, examined at 21st day. The essentials: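 Pre-emergence soil treatment: wettable powder diluted in water and sprayed on soil just sown with Ec and Se seeds, delivering 100 g active ingredient per 10 ares in 100 liters per 10 ares. Herbicidal effect was rated against a fixed scale 21 days later, after greenhouse growth.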

Series [2] deals with Echinochloa oryzicola Vasing. (Eo). The series is described as follows: Test for crop selectivity by paddy field soil treatment (Test Example 4), herbicidal effect on Eo. Conditions: 100 g/10 a active ingredient, 21st day. The method, then: (§1) [table] <Test Example 4> Test For Crop Selectivity By Paddy Field Soil Treatment A paddy field soil was filled in a plastic pot of 100 cm^2 and subjected to puddling. Seeds of Echinochloa oryzicola Vasing. (Eo) were sowed; two-leaf stage seedlings of rice (Or) were transplanted in a depth of 2 cm; and water was filled in a depth of 3 cm. Next day, wettable powders produced in accordance with the Formulation 1 were diluted with water and dropped on the water surface. The application amount of each wettable powder was 100 g per 10 ares in terms of the active ingredient. Then, breeding was made in a greenhouse. At the 21st day from the treatment, the phytotoxicity and herbicidal effect of each wettable powder were examined in accordance with the standard shown in Table 40.

Series [3] has the same test system. The series is described as follows: Test for herbicidal effect by paddy field soil treatment (Test Example 1). To be noted: application amount (active ingredient) 100 g/10 a, examined at the 21st day from the treatment, index per Table 40. The method in brief: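 Scored on a standard scale at day 21 in the greenhouse: herbicidal effect of wettable powder applied to flooded water (3 cm depth) at 100 g a.i./10 ares, one day after sowing Eo into puddled paddy soil.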

The test system of a further series is rice (Or). The series is described as follows: Test for crop selectivity by paddy field soil treatment (Test Example 4), phytotoxicity to rice. Conditions: transplanted two-leaf stage rice, 100 g/10 a active ingredient, 21st day. The procedure:
as §1

As to `CC1(C)CC(S(=O)(=O)Cc2ccccc2C(=O)OC2CCCC2)=NO1` [Compound 1-601], in series [1], the “Herbicidal effect to Ec” value is listed as 5 (A herbicidal effect or phytotoxicity of 90% or more). Besides, the “Herbicidal effect to Eo” value in series [2] and in series [3] was 5 (A herbicidal effect or phytotoxicity of 90% or more) throughout. For the same compound, the “Phytotoxicity to Or” value with rice (Or) is reported as 1 (A herbicidal effect or phytotoxicity of 10% to less than 30%).

Regarding `CC(C)COC(=O)c1cccc(Cl)c1CS(=O)(=O)C1=NOC(C)(C)C1` [Compound 1-624], the “Herbicidal effect to Eo” value in series [2] and in series [3] was 5 (A herbicidal effect or phytotoxicity of 90% or more) each time. Further, the “Phytotoxicity to Or” value with rice (Or) is listed as 1 (A herbicidal effect or phytotoxicity of 10% to less than 30%).

Consider `CC1(C)CC(S(=O)(=O)Cc2c(Cl)cccc2C(=O)OCc2cccc(Cl)c2)=NO1` [Compound 1-627], for which the “Herbicidal effect to Eo” value in series [2] and in series [3] was 5 (A herbicidal effect or phytotoxicity of 90% or more) each time. Besides, in the series with rice (Or), the “Phytotoxicity to Or” value is listed as 1 (A herbicidal effect or phytotoxicity of 10% to less than 30%).

For `CC1(C(=O)O)CC(SCc2c(F)cccc2F)=NO1` (stereo not shown) [Compound 1-419], the “Herbicidal effect to Eo” value in series [2] and in series [3] was 5 (A herbicidal effect or phytotoxicity of 90% or more) in each case. In addition, in the series on rice (Or), the “Phytotoxicity to Or” value is recorded as 1 (A herbicidal effect or phytotoxicity of 10% to less than 30%).

As for `CC1(COCc2c(F)cccc2F)CC(S(=O)(=O)Cc2c(F)cccc2F)=NO1` (stereo not shown) [Compound 1-401], the “Herbicidal effect to Eo” value in series [2] and in series [3] was 5 (A herbicidal effect or phytotoxicity of 90% or more) each time. In the series with rice (Or), the “Phytotoxicity to Or” value was 0 (A herbicidal effect or phytotoxicity of 0% to less than 10%).

As to `Fc1cccc(F)c1CSC1=NOC2CCCCC12` (stereo not shown) [Compound 1-386], the “Herbicidal effect to Eo” value in series [2] and in series [3] was 4 (A herbicidal effect or phytotoxicity of 70% to less than 90%) each time. For the same compound, the “Phytotoxicity to Or” value with rice (Or) is 0 (A herbicidal effect or phytotoxicity of 0% to less than 10%).

`CCC1(C)CC(S(=O)(=O)Cc2ccc(OC)cc2)=NO1` (stereo not shown) [Compound 1-230]: the “Herbicidal effect to Eo” value in series [2] and in series [3] was 5 (A herbicidal effect or phytotoxicity of 90% or more) each time. In the series with rice (Or), the “Phytotoxicity to Or” value is reported as 0 (A herbicidal effect or phytotoxicity of 0% to less than 10%).

For `CC(C)C1(C)CC([S+]([O-])Cc2c(F)cccc2F)=NO1` (stereo not shown) [Compound 1-367], the “Herbicidal effect to Eo” value in series [2] and in series [3] was 5 (A herbicidal effect or phytotoxicity of 90% or more) each time. In addition, in the series on rice (Or), the “Phytotoxicity to Or” value is on record as 1 (A herbicidal effect or phytotoxicity of 10% to less than 30%).

As to `CC1(C)CC(S(=O)(=O)Cc2ccccc2C(=O)OCc2cccc(Cl)c2)=NO1` [Compound 1-613], the “Herbicidal effect to Eo” value in series [2] and in series [3] was 5 (A herbicidal effect or phytotoxicity of 90% or more) throughout. Also, in the series with rice (Or), the “Phytotoxicity to Or” value is reported as 0 (A herbicidal effect or phytotoxicity of 0% to less than 10%).

`CCC(C)OC(=O)c1cccc(Cl)c1CS(=O)(=O)C1=NOC(C)(C)C1` (stereo not shown) [Compound 1-623]: the “Herbicidal effect to Eo” value in series [2] and in series [3] was 5 (A herbicidal effect or phytotoxicity of 90% or more) throughout. In addition, the “Phytotoxicity to Or” value with rice (Or) is listed as 1 (A herbicidal effect or phytotoxicity of 10% to less than 30%).

Turning to `CC1(C)CC(S(=O)(=O)Cc2ccccc2OCc2ccccc2)=NO1` [Compound 1-588], the “Herbicidal effect to Eo” value in series [2] and in series [3] was 5 (A herbicidal effect or phytotoxicity of 90% or more) each time. In addition, the “Phytotoxicity to Or” value with rice (Or) was 1 (A herbicidal effect or phytotoxicity of 10% to less than 30%).

With `CCS(=O)(=O)C1=NOC(C)(C)C1` [Compound 2-2], the “Herbicidal effect to Eo” value in series [2] and in series [3] was 5 (A herbicidal effect or phytotoxicity of 90% or more) in each case. Besides, in the series with rice (Or), the “Phytotoxicity to Or” value was 0 (A herbicidal effect or phytotoxicity of 0% to less than 10%).

Regarding `CC1(Cc2ccccc2)CC(S(=O)(=O)Cc2c(F)cccc2F)=NO1` (stereo not shown) [Compound 1-377], the “Herbicidal effect to Eo” value in series [2] and in series [3] was 5 (A herbicidal effect or phytotoxicity of 90% or more) throughout. Also, in the series on rice (Or), the “Phytotoxicity to Or” value is 0 (A herbicidal effect or phytotoxicity of 0% to less than 10%).

Regarding `CC1(C)CC(S(=O)(=O)Cc2c(Cl)cccc2C(=O)OCc2ccccc2)=NO1` [Compound 1-625], the “Herbicidal effect to Eo” value in series [2] and in series [3] was 5 (A herbicidal effect or phytotoxicity of 90% or more) each time. Moreover, in the series on rice (Or), the “Phytotoxicity to Or” value is listed as 1 (A herbicidal effect or phytotoxicity of 10% to less than 30%).

Turning to `CCCC1(C)CC([S+]([O-])Cc2c(F)cccc2F)=NO1` (stereo not shown) [Compound 1-365], the “Herbicidal effect to Eo” value in series [2] and in series [3] was 5 (A herbicidal effect or phytotoxicity of 90% or more) in each case. Besides, the “Phytotoxicity to Or” value in the series with rice (Or) is listed as 1 (A herbicidal effect or phytotoxicity of 10% to less than 30%).

Consider `CC1(C)CC(S(=O)(=O)Cc2ccccc2N)=NO1` [Compound 1-552], for which the “Herbicidal effect to Eo” value in series [2] and in series [3] was 4 (A herbicidal effect or phytotoxicity of 70% to less than 90%) each time. In addition, in the series with rice (Or), the “Phytotoxicity to Or” value is 1 (A herbicidal effect or phytotoxicity of 10% to less than 30%).

Take `CC(C)COC(=O)c1ccccc1CS(=O)(=O)C1=NOC(C)(C)C1` [Compound 1-598]: the “Herbicidal effect to Eo” value in series [2] and in series [3] was 5 (A herbicidal effect or phytotoxicity of 90% or more) throughout. The “Phytotoxicity to Or” value in the series with rice (Or) was 1 (A herbicidal effect or phytotoxicity of 10% to less than 30%).

For the compound `O=S(=O)(Cc1c(F)cccc1F)C1=NOC2CCCCCCC12` (stereo not shown) [Compound 1-519], the “Herbicidal effect to Eo” value in series [2] and in series [3] was 5 (A herbicidal effect or phytotoxicity of 90% or more) each time. In the series with rice (Or), the “Phytotoxicity to Or” value was 0 (A herbicidal effect or phytotoxicity of 0% to less than 10%).

As for `CCC1(C)CC(S(=O)(=O)CCCc2ccccc2)=NO1` (stereo not shown) [Compound 1-457], the “Herbicidal effect to Eo” value in series [2] and in series [3] was 5 (A herbicidal effect or phytotoxicity of 90% or more) throughout. Further, the “Phytotoxicity to Or” value in the series with rice (Or) is recorded as 1 (A herbicidal effect or phytotoxicity of 10% to less than 30%).

For the compound `CC1(C)CC(S(=O)(=O)Cc2c(Cl)cccc2C(=O)OCc2ccccc2Cl)=NO1` [Compound 1-626], the “Herbicidal effect to Eo” value in series [2] and in series [3] was 5 (A herbicidal effect or phytotoxicity of 90% or more) in each case. Further, in the series on rice (Or), the “Phytotoxicity to Or” value is listed as 0 (A herbicidal effect or phytotoxicity of 0% to less than 10%).

For `CC1(C)CC(S(=O)(=O)Cc2c(Cl)cccc2C(=O)OCc2ccc(Cl)cc2)=NO1` [Compound 1-628], the “Herbicidal effect to Eo” value in series [2] and in series [3] was 5 (A herbicidal effect or phytotoxicity of 90% or more) in each case. The “Phytotoxicity to Or” value in the series on rice (Or) is 0 (A herbicidal effect or phytotoxicity of 0% to less than 10%).

As to `CC1(C)CC(S(=O)(=O)Cc2ccccc2C(=O)OCc2ccc(Cl)cc2)=NO1` [Compound 1-614], the “Herbicidal effect to Eo” value in series [2] and in series [3] was 5 (A herbicidal effect or phytotoxicity of 90% or more) throughout. In the series on rice (Or), the “Phytotoxicity to Or” value is given as 0 (A herbicidal effect or phytotoxicity of 0% to less than 10%).

Consider `CCC1(C)CC(S(=O)(=O)CCc2ccccc2)=NO1` (stereo not shown) [Compound 1-456], for which the “Herbicidal effect to Eo” value in series [2] and in series [3] was 5 (A herbicidal effect or phytotoxicity of 90% or more) in each case. In addition, the “Phytotoxicity to Or” value in the series with rice (Or) was 0 (A herbicidal effect or phytotoxicity of 0% to less than 10%).

For the compound `CC1(C)CC(S(=O)(=O)Cc2ccccc2C(=O)OCc2ccccc2Cl)=NO1` [Compound 1-612], the “Herbicidal effect to Eo” value in series [2] and in series [3] was 5 (A herbicidal effect or phytotoxicity of 90% or more) in each case. The “Phytotoxicity to Or” value in the series with rice (Or) is on record as 0 (A herbicidal effect or phytotoxicity of 0% to less than 10%).
